Test results as given in BindingDB's records for doi:10.1016/j.bmc.2017.01.005 (University of New Mexico, 2017).

Each compound was assayed against T1, Nuclear factor erythroid 2-related factor 2 (Homo sapiens, UniProt Q16236) (assay: Activation of Nrf2 (unknown origin) expressed in human HepG2 cells after 5 hrs by ARE-driven luciferase reporter gene assay).
T1 sequence (Q16236 whole entry): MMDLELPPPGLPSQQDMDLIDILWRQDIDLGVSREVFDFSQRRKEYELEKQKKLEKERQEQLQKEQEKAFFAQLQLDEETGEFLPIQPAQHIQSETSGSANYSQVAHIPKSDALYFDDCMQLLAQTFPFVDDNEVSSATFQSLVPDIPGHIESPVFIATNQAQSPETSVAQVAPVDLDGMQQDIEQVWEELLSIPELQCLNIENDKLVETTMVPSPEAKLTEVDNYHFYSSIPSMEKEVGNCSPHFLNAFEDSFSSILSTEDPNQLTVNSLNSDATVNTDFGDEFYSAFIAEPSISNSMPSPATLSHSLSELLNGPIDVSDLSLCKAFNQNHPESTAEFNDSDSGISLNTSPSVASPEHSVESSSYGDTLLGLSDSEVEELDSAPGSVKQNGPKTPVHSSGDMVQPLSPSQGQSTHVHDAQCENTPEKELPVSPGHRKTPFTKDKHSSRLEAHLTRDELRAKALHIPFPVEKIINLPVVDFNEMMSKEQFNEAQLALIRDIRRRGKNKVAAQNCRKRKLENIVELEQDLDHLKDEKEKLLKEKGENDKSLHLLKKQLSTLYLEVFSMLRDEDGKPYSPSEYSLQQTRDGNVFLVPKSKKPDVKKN

With Fc1ccc(F)c(/C=C/c2ccccc2F)c1 as the compound, how does the EC50 read?
Its EC50 is 5.9 µM.

Which EC50 does the source give for COc1cccc(/C=C/c2ccc(F)cc2)c1OC here?
Its EC50 is 2.9 µM.

For COc1ccc(/C=C/c2ccccc2F)cc1 [US8980954, 6p], which EC50 is on record?
Its EC50 is 5.4 µM.

How did the EC50 turn out when COc1ccccc1/C=C/c1ccccc1F was run?
Its EC50 is 3.1 µM.

Which EC50 does the source give for COc1cccc(/C=C/c2ccc(F)cc2)c1 here?
Its EC50 is 6 µM.

Fc1ccccc1/C=C/c1ccc(Cl)cc1 was tested. Which EC50 did it give?
Its EC50 is 1.6 µM.

COc1ccc(/C=C/c2ccc(F)cc2)cc1OC was tested. Which EC50 did it give?
The EC50 was 2.6 µM.

For COc1ccccc1/C=C/c1ccccc1, which EC50 is on record?
The EC50 was 4.4 µM.

How did the EC50 turn out when Cc1ccc(/C=C/c2ccc(F)cc2)cc1 was run?
The EC50 was 1.3 µM.

With Cc1ccc(/C=C/c2cccc(C(F)(F)F)c2)cc1 as the compound, how does the EC50 read?
Its EC50 is 1.5 µM.

With COc1ccc(/C=C/c2cc(F)ccc2F)cc1 as the compound, how does the EC50 read?
Its EC50 is 3.2 µM.

Which EC50 does the source give for Fc1ccc(/C=C/c2ccccc2)cc1 here?
Its EC50 is 12.4 µM.

COc1cccc(/C=C/c2ccccc2F)c1 was tested. Which EC50 did it give?
Its EC50 is 3.8 µM.

Fc1ccccc1/C=C/c1ccccc1F was tested. Which EC50 did it give?
Its EC50 is 4.3 µM.

For Fc1ccc(/C=C/c2cccc(F)c2)cc1, which EC50 is on record?
Its EC50 is 0.65 µM.

With Fc1ccc(/C=C/c2cc(F)ccc2F)cc1 as the compound, how does the EC50 read?
The EC50 was 2.9 µM.

With Fc1cccc(/C=C/c2ccccc2)c1 as the compound, how does the EC50 read?
Its EC50 is 3.1 µM.

COc1ccc(/C=C/c2cccc(F)c2)cc1 [US8980954, 6n] was tested. Which EC50 did it give?
The EC50 was 8.9 µM.

Which EC50 does the source give for Fc1cccc(/C=C/c2ccccc2F)c1 here?
The EC50 was > 15 µM.

How did the EC50 turn out when COc1ccc(/C=C/c2ccccc2Cl)cc1 [US8980954, 6j] was run?
The EC50 was 3.1 µM.

How did the EC50 turn out when COc1cccc(/C=C/c2ccc(C)cc2)c1OC was run?
The EC50 was 1.1 µM.

How did the EC50 turn out when COc1ccc(/C=C/c2ccc(OC)cc2OC)cc1 [(E)2'',4,4''-Trimethoxystilbene] was run?
Its EC50 is 4.6 µM.

For COc1cccc(/C=C/c2ccc(C(C)C)cc2)c1OC, which EC50 is on record?
The EC50 was 2.7 µM.

How did the EC50 turn out when COc1ccc(/C=C/c2ccc(F)c(F)c2)cc1 was run?
Its EC50 is > 15 µM.

How did the EC50 turn out when Fc1cccc(/C=C/c2ccc(F)cc2F)c1 was run?
Its EC50 is 0.45 µM.

How did the EC50 turn out when COc1cccc(/C=C/c2cc(OC)ccc2OC)c1 was run?
Its EC50 is > 15 µM.

COc1cccc(/C=C/c2ccccc2)c1OC was tested. Which EC50 did it give?
Its EC50 is 4.7 µM.

For Oc1ccc(/C=C/c2ccccc2F)cc1, which EC50 is on record?
The EC50 was 11.4 µM.

For Oc1ccc(/C=C/c2cc(O)cc(O)c2)cc1 [5-[(E)-2-(4-hydroxyphenyl)ethenyl]benzene-1,3-diol], which EC50 is on record?
Its EC50 is 5.4 µM.

With COc1ccc(OC)c(/C=C/c2ccc(F)cc2)c1 as the compound, how does the EC50 read?
The EC50 was 5.1 µM.

Which EC50 does the source give for Fc1cccc(/C=C/c2ccc(F)c(F)c2)c1 here?
Its EC50 is 5 µM.

Fc1ccc(/C=C/c2ccccc2F)cc1 was tested. Which EC50 did it give?
Its EC50 is 3.6 µM.

How did the EC50 turn out when Cc1ccc(/C=C/c2cccc([N+](=O)[O-])c2)cc1 was run?
The EC50 was 3.7 µM.

With COc1cccc(/C=C/c2cccc(F)c2)c1 as the compound, how does the EC50 read?
The EC50 was 2.3 µM.

With Cc1ccc(/C=C/c2ccc(F)cc2F)cc1 as the compound, how does the EC50 read?
The EC50 was 2 µM.

For COc1ccc(/C=C/c2cccc([N+](=O)[O-])c2)cc1, which EC50 is on record?
The EC50 was 3.3 µM.

With Fc1ccc(/C=C/c2ccc(F)cc2F)cc1 as the compound, how does the EC50 read?
The EC50 was 0.9 µM.

With Fc1cccc(/C=C/c2cc(F)ccc2F)c1 as the compound, how does the EC50 read?
The EC50 was 0.3 µM.

How did the EC50 turn out when Fc1ccc(/C=C/c2ccc(F)c(F)c2)cc1 was run?
The EC50 was > 15 µM.

For O=[N+]([O-])c1cccc(/C=C/c2ccccc2)c1, which EC50 is on record?
The EC50 was 3 µM.

How did the EC50 turn out when Cc1ccc(/C=C/c2ccc(F)c(F)c2)cc1 was run?
Its EC50 is 2.6 µM.

Cc1ccc(/C=C/c2ccccc2F)cc1 was tested. Which EC50 did it give?
The EC50 was 1.4 µM.

Cc1ccc(/C=C/c2cccc(F)c2)cc1 was tested. Which EC50 did it give?
The EC50 was 0.8 µM.

Which EC50 does the source give for Fc1ccccc1/C=C/c1ccccc1 here?
Its EC50 is 0.7 µM.

How did the EC50 turn out when COc1ccc(OC)c(/C=C/c2ccc(OC)cc2OC)c1 was run?
Its EC50 is 0.8 µM.

How did the EC50 turn out when COc1cccc(/C=C/c2ccccc2OC)c1 was run?
Its EC50 is 4.4 µM.

With Fc1ccc(/C=C/c2ccccc2F)c(F)c1 as the compound, how does the EC50 read?
Its EC50 is 9.6 µM.

COc1cccc(/C=C/c2ccc(C(F)(F)F)cc2)c1OC was tested. Which EC50 did it give?
Its EC50 is 2.2 µM.

Which EC50 does the source give for COc1ccc(/C=C/c2cccc(O)c2)cc1 here?
The EC50 was > 15 µM.

COc1ccc(/C=C/c2cccc(F)c2)cc1OC [4-(3-fluorostyryl)-1,2-dimethoxybenzene] was tested. Which EC50 did it give?
Its EC50 is 9.5 µM.

How did the EC50 turn out when COc1ccc(/C=C/c2ccc(O)c(OC)c2)cc1 was run?
Its EC50 is 3.7 µM.

For Fc1ccc(/C=C/c2ccccc2F)cc1F, which EC50 is on record?
Its EC50 is > 15 µM.

Which EC50 does the source give for COc1cccc(/C=C/c2cccc(F)c2)c1OC here?
The EC50 was 1.9 µM.

Fc1ccccc1/C=C/c1c(F)cccc1F was tested. Which EC50 did it give?
Its EC50 is 1.4 µM.

Which EC50 does the source give for Fc1cccc(/C=C/c2cccc(F)c2)c1 here?
Its EC50 is 1 µM.

How did the EC50 turn out when Fc1cccc(F)c1/C=C/c1ccccc1 was run?
Its EC50 is 6.9 µM.

Which EC50 does the source give for COc1ccc(/C=C/c2ccc(F)cc2)cc1 here?
The EC50 was 4.2 µM.
